Assay results reported in patent US6620844B2, “Method for reducing blood insulin levels by reducing in vivo cathepsin L activity” (NewMillennium Pharmaceutical, Inc., priority 2001, dated 2003).
“Also recorded” adds a separate entry of the source. One block for each compound: values may come before it.

Columns and labels:
[1] = target: T1, Cathepsin K (Homo sapiens, UniProt P43235); conditions: cited from earlier work
T1 sequence (P43235 115-329): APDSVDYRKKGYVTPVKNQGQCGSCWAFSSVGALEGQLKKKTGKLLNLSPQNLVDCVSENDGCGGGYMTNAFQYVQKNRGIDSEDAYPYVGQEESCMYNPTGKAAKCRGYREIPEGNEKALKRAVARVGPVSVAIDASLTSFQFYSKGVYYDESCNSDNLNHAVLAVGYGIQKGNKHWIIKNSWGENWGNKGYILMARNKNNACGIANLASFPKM

[2] = target: Cathepsin B (Homo sapiens, UniProt P07858); conditions: cited from earlier work
[3] = target: Cathepsin L (Homo sapiens, UniProt P07711); conditions: cited from earlier work
[4] = target: T2, Papain (Carica papaya, UniProt P00784); conditions: cited from earlier work
T2 sequence (P00784 134-345): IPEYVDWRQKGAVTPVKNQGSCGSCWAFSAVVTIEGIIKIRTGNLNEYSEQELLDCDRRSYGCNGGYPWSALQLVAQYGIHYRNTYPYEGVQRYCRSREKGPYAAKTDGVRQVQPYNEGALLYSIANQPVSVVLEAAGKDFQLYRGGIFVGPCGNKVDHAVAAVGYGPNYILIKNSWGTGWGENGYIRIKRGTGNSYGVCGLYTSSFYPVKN

[5] = test system: rat model of human glomerular disease; conditions: cited from earlier work
[6] = target: T3, cathepsin L (Mus musculus, UniProt P06797); test: Cysteine protease active site labeling in mouse peritoneal macrophages: cathepsin L; assay type: cell-based; conditions: 10 μM, mouse peritoneal macrophages
T3 construct: endogenous in cells; host or cells: thioglycolate-elicited mouse peritoneal macrophages
Procedure: (§1) FIG. 1. Cysteine protease inhibition profile by synthetic inhibitors in mouse peritoneal macrophages. [^125I]-Z-Tyr-Ala-CHN2-labeled mouse peritoneal macrophages were lysed and separated onto 12% SDS-PAGE to visualize labeled active cathepsins. Doses and inhibitors used were all indicated.
(§2) Mouse peritoneal macrophages were generated by injecting mice with thioglycolate as described in Shi et al. (2000) J. Exp. Med. 191:[…]. After 3-4 days of incubation, peritoneal microphages were washed out using Tris-EDTA buffers containing 6 mM EDTA (pH 8.0). Cells were then seeded onto 24-well plates in DMEM with 10% FBS till complete spread. After cells were attached to the plates, different doses of inhibitors were added. After 2-3 hours of incubation, cells were labeled with [^125I]-Z-Tyr-Ala-CHN2 overnight at 37° C. to detect intracellular active cysteine proteases. Cells were lysed into 1× reducing protein sample buffer and separated onto 12% SDS-PAGE.
(§3) First, the synthetic small molecule compounds were tested for their selectivity toward different forms of cathepsin. Mouse peritoneal macrophages were cultured in the presence of selective inhibitors and cysteine protease active site labeling probe [^125I]-Z-Tyr-Ala-CHN2 (Sukhova et al., supra). […] In contrast, other inhibitors used had no effect on cathepsin B activity. […] Therefore, these inhibitors can be utilized to test if the aforementioned cathepsins play roles in the breakdown of insulin receptor (IR) or IR turnover.

[7] = target: T4, cathepsin K (Mus musculus, UniProt P55097); test: Cysteine protease active site labeling in mouse peritoneal macrophages: cathepsin K; assay type: cell-based; conditions: 10 μM
T4 construct: endogenous in cells; host or cells: thioglycolate-elicited mouse peritoneal macrophages
T4 sequence (P55097 115-329): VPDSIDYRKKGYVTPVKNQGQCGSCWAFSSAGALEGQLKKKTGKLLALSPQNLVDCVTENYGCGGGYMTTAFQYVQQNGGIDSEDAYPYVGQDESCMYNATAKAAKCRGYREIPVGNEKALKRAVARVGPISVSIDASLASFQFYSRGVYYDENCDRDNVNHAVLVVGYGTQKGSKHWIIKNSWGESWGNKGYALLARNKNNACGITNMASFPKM
Procedure: as §1, §2, §3

[8] = test system: mouse 3T3-L1 cells; test: Mouse 3T3-L1 preadipocyte adipogenesis, oil-red staining; assay type: cell-based; conditions: 15 μM
Procedure: FIG. 9. Effect of cathepsin L inhibitor during mouse 3T3-L1 preadipocyte differentiation. Mouse 3T3-L1 cells were induced for adipogenesis. CLIK 148 (10 μM) was […] at different time points (days) during adipogenesis. Cells were stained with oil-red at the end of differentiation.
Mouse preadipocytes were differentiated as described in Patel and Lane (2000) J. Biol. Chem. 275:17653-17660. In brief, mouse 3T3-L1 cells were cultured in DMEM containing 10% calf serum till confluence at 37° C. with 10% CO2. After additional two days maintenance in the same media, cells were differentiated by adding 0.5 mM methylisobutylxanthine, 1 μM dexmethasone, 1 μg/ml insulin, and 10% FBS for two days in the presence and absence of protease inhibitors. Culture media were replaced with DMEM containing 1 μg/ml insulin and 10% FBS. After day 4 the cells were fed every other day with 10% FBS in DMEM without insulin. By days 7-8, cells were fully differentiated.
Similar phenotypes were observed using mouse preadipocytes 3T3-L1 (ATCC, Manassas, Va.). Both active cathepsins L and S were found in differentiated adipocytes (FIG. 8, days 8-11). However, levels of both enzyme increased after the differentiation, a phenomenon different from that of human preadipoicytes. […] Cathepsin K antigen was detected in preadipocytes but not adipocytes nor insulin treated cells (FIG. 10).

[9] = test system: insulin like growth factor I receptor (IGF-IR); test: IGF-IR levels in human preadipocytes, Western blot; assay type: cell-based; conditions: 10 μM
Procedure: FIG. 3. […] Cells were treated as in FIG. 2. Western blot analysis was performed using goat anti-human IGF-1R polyclonal antibodies.
(§4) Human preadipocytes were initially cultured in MSCGM medium (BioWhitaker) at 37° C. and 5% CO2 for 7 to 12 days with 3-4 changes of media till complete confluence. Non-induced cells were kept in adipogenesis maintenance media containing 0.01 mg/ml of insulin, 0.05 units/ml of penicillin, 0.05 μg/ml of streptomycin, and 10% fetal bovine serum. To induce adipogenesis, complete confluent cells were cultured in adipogenesis induction medium containing 1 μM dexamethasone, 0.2 mM indomethacin, 0.01 mg/ml insulin, 0.5 mM 3-isobutyl-1-methyl-xanthine, 0.05 units/ml of penicillin, 0.05 μg/ml of streptomycin, and 10% fetal bovine serum in the presence and absence of protease inhibitors for 3 days followed by three days of culture in maintenance media. After three cycles of induction and maintenance, cells were cultured in maintenance media for additional 7 days with two changes of fresh media.
(§5) After differentiation, cells were collected, and lysed into 1×RIPA buffer. Protein concentrations were determined using Bio-Rad Dc protein assay system according to the manufacturer (Bio-Rad, Hercules, Calif.). Equal amount of proteins were separated on 7% SDS-PAGE for detecting IR and IGF-1R, 12% SDS-PAGE for detecting cathepsins S, K, and L antigens. Both IR and IGF-1R primary polyclonal antibodies were raised from goat and all cathepsin antibodies were polyclonal antibodies raised from rabbit. The corresponding HRP-conjugated secondary antibodies were used for detections.
To test which cathepsin is involved in the IR turnover, human preadipocytes (BioWhittaker, Walkersville, Md.) were induced to become adipocytes in the presence and absence of inhibitors. Differentiated adipocytes expressed more IR than controls as previously reported. Pederson et al. (2000) Biochem. Biophys. Res. Commun. 276:162-168. Cathepsin B inhibitor (CA 074, 10 μM) and catepsin S inhibitor (CLIK 060, 2 μM) had no effect on either IR turnover or differentiation (FIGS. 2). […]

[10] = test system: human preadipocytes; test: Human preadipocyte adipogenesis, oil-red staining; assay type: cell-based; conditions: 10 μM, human preadipocytes
Procedure: FIG. 6. Oil-red staining of human preadipocytes and adipocytes.
as §4
This hypothesis is further confirmed by oil-red staining of CLIK 148 or 195 treated preadipocytes (FIG. 6). In addition, inhibition of adiogenesis by these two inhibitors is dose dependent. Less than 50% of adipogenesis was blocked by 1 μM of such inhibitors. […] In contrast, 1 μM of CLIK 060, 1 or 10 μM of CA 074 had no effect on adipogenesis (data not shown). Therefore, these observations indicate that cathepsin L appears to play a more critical role than cathepsins S and K in adipogenesis by controlling insulin/IR complex turnover.

[11] = test system: CCAAT/enhancer-binding protein-α (C/EBP-α); test: C/EBP-α levels in human preadipocytes, Western blot; assay type: cell-based; conditions: human preadipocytes differentiated with inhibitor, FIG. 4
Procedure: FIG. 4. Inhibition of cathepsin L blocked the expression of CCAAT/enhancer-binding protein. Human preadipocytes were differentiated as in FIG. 2. A 10% gel was used to perform Western blot analysis using goat anti-human C/EBP-α polyclonal antibodies and the blot was detected using the corresponding HRP-conjugated secondary antibodies.
as §4
(§6) To evaluate the cell differentiation levels affected by aforementioned inhibitors, the levels of transcription factors CCAAT/enhancer-binding protein-α (C/EBP-α) as well as peroxisome proliferator-activated receptor-γ (PPAR-γ) from cells treated with and without inhibitors were measured. Both C/EBP-α and PPAR-γ are important adipocyte determination factors. Wu et al. (1999) Mol. Cell. 3:151-158; Tanaka et al. (1997) EMBO J. 16:7432-7443; and Tontonoz et al. (1994) Cell 79:1147-1156.

[12] = target: T5, cathepsin B (Mus musculus, UniProt P10605); test: Cysteine protease active site labeling in mouse peritoneal macrophages: cathepsin B; assay type: cell-based; conditions: 10 μM
T5 construct: endogenous in cells; host or cells: thioglycolate-elicited mouse peritoneal macrophages
Procedure: as §1, §2, §3

[13] = test system: peroxisome proliferator-activated receptor-γ (PPAR-γ); test: PPAR-γ levels in human preadipocytes, Western blot; assay type: cell-based; conditions: human preadipocytes differentiated with inhibitor, FIG. 5
Procedure: FIG. 5. Inhibition of cathepsin L blocked the expression of PPAR-γ. Human preadipocytes were used and Western blot analysis was performed as in FIG. 4 instead of using mouse anti-human PPAR-γ monoclonal antibodies as the primary antibodies.
as §4, §6

[14] = test system: insulin receptor β subunit; test: Insulin receptor turnover in human preadipocytes, Western blot; assay type: cell-based; conditions: 10 μM, human preadipocytes
Procedure: FIG. 2. […] Human preadipocytes were incubated with and without inhibitors indicated at different doses, lysed, separated onto 7% SDS-PAGE, and probed with goat anti-human insulin receptor β-subunit polyclonal antibodies. Both mature β subunit and its precursor were indicated.
as §4, §5
To test which cathepsin is involved in the IR turnover, human preadipocytes (BioWhittaker, Walkersville, Md.) were induced to become adipocytes in the presence and absence of inhibitors. Differentiated adipocytes expressed more IR than controls as previously reported. Pederson et al. (2000) Biochem. Biophys. Res. Commun. 276:162-168. Cathepsin B inhibitor (CA 074, 10 μM) and catepsin S inhibitor (CLIK 060, 2 μM) had no effect on either IR turnover or differentiation (FIGS. 2). […] The same is true when the blot was tested with insulin like growth factor I receptor (IGF-IR) antibodies (FIG. 3).

[15] = target: Cathepsin C (Homo sapiens, UniProt P53634); conditions: at 1 × 10^−6 M; cited from earlier work
[16] = target: Cathepsin S (Homo sapiens, UniProt P25774); conditions: at 1 × 10^−6 M; cited from earlier work
Cathepsin S, sequence (P25774 115-331, species assumed): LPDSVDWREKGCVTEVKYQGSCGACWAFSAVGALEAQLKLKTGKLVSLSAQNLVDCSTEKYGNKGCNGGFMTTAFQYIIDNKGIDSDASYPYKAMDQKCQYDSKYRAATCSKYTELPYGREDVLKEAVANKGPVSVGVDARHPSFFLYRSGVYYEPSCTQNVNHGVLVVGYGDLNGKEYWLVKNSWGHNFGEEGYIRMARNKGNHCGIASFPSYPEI

Cathepsin L, sequence (P07711 114-333, species assumed): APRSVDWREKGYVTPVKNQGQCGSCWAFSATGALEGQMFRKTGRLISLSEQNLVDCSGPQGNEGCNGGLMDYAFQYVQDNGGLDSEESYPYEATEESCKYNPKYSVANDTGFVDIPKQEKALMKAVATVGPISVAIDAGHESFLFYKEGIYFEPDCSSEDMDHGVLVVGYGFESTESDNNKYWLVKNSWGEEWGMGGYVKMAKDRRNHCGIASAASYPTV
Cathepsin C, sequence (P53634 25-463, species assumed): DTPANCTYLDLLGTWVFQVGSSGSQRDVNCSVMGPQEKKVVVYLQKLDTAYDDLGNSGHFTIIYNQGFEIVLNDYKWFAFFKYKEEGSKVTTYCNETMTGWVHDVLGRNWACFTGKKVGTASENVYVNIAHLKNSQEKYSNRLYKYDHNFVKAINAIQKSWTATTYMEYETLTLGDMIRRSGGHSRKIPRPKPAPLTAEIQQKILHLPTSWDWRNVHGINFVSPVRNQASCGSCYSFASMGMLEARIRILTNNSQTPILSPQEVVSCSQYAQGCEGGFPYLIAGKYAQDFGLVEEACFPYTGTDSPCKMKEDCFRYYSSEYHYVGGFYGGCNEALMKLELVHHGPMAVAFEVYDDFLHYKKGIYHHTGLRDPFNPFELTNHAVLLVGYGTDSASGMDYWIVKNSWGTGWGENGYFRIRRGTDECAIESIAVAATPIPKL
T3 sequence (P06797 114-334): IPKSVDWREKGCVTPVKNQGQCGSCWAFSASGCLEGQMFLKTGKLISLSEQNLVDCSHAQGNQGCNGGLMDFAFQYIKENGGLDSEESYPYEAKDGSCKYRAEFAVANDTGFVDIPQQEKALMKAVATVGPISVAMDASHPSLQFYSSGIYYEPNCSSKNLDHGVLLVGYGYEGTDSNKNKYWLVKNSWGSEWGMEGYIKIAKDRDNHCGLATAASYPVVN
T5 sequence (P10605 80-333 limits assumed): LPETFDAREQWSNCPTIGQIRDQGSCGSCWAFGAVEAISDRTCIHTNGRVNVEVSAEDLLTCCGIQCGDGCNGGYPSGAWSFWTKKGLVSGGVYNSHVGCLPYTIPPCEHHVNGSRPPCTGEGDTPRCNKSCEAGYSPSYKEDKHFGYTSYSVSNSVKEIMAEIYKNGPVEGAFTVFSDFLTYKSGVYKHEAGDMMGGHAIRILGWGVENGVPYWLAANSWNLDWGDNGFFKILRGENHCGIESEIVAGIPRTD

SMILES: O=C(CNC(=O)[C@H](Cc1ccccc1)NC(=O)OCc1ccccc1)NOC(=O)c1ccccc1
Ki [1]: 12 to 16 nM
Ki [2]: 0.8 to 0.9 nM
Ki [3]: 0.04 to 0.08 nM
Ki [4]: 2 to 5 nM

SMILES: CCOC(=O)[C@H]1N[C@@H]1C(=O)NC(CC(C)C)C(=O)COC(=O)c1ccccc1 (stereo partly shown)
Cathepsin B: K2nd [2]: 1,607 M^−1Min^−1
Cathepsin L: K2nd [3]: 16,261 M^−1Min^−1
Papain: K2nd [4]: 1,533 M^−1Min^−1

SMILES: CC(C)CCNC(=O)[C@H](CC(C)C)NC(=O)[C@H]1O[C@@H]1C(=O)O (relative stereo) [trans-epoxysuccinyl-L-leucylamido-(3-methyl)butane]
proteinuria [5]: significantly reduced

cathepsin L activity (active site labeling) [6]: completely inhibited
cathepsin K activity (active site labeling) [7]: not
cathepsin B activity (active site labeling) [12]: not
SMILES: CN(C)C(=O)[C@H](Cc1ccccc1)NC(=O)[C@H]1O[C@@H]1C(=O)NCCc1ccccn1 (relative stereo) [CLIK 148, L-(+)-(2S, 3S)-N-[2-(2′-pyridinyl)-1-ethyl]-Na-amino-(L-phenylalaninedimethylamide)-trans-epoxysuccinamide]
inhibition of adipogenesis in 3T3-L1 cells [8]: inhibition of adipogenesis
levels of IGF-IR β subunit and its precursor (the same as for IR) [9]: increased levels
inhibition of adipogenesis / differentiation [10]: complete inhibition; also recorded: completely blocked
accumulation of 50 kDa C/EBP-α [11]: blocking the accumulation
accumulation of 50 kDa PPAR-γ [13]: blocking the accumulation
levels of 95 kDa IR β subunit and its precursor [14]: increased levels

SMILES: CN(C)C(=O)[C@H](Cc1ccccc1)NC(=O)C1O[C@@H]1C(=O)N[C@@H](Cc1ccccc1)C(=O)N(C)C (stereo partly shown)
% of Inhibition, Cathepsin K ([1]; at 1 × 10^−6 M): 0%
% of Inhibition, Cathepsin C [15]: 0%
% of Inhibition, Cathepsin B ([2]; at 1 × 10^−6 M): 0%
% of Inhibition, Cathepsin L ([3]; at 1 × 10^−6 M): 100%
% of Inhibition, Cathepsin S [16]: 25%
